# According to paper PMC10914734 (Signal Transduction and Targeted Therapy, 2024):
# Read-outs that look alike come from different tables or passages of the source.
# Tested on: SARS-CoV-2 XBB 1.16 variant
# Parameters: species or system K18-hACE2 mice
# Settings: mouse; for Decrease of lung viral load (viral RNA copies) compared to the vehicle group: in vivo
smiles,measurement,setting,value
"O=C(NCc1ccccc1)C(=O)[C@H](C[C@@H]1CCCNC1=O)NC(=O)[C@H](Cc1ccc(F)cc1)NC(=O)c1cc2ccccc2o1 [14a, N-((S)-1-(((S)-4-(benzylamino)-3,4-dioxo-1-((S)-2-oxopiperidin-3-yl)butan-2-yl)amino)-3-(4-fluorophenyl)-1-oxopropan-2-yl)benzofuran-2-carboxamide]",Effect against SARS-CoV-2 XBB 1.16 variant in vivo (in words),,potent effect
same,Decrease of lung viral load (viral RNA copies) compared to the vehicle group,10 mg/kg,2.0 log10 units
same,Decrease of lung viral load (viral RNA copies) compared to the vehicle group,20 mg/kg,2.6 log10 units
"O=C(NCc1ccccc1)C(=O)[C@H](C[C@@H]1CCCNC1=O)NC(=O)[C@H](CC1CCCCC1)NC(=O)c1cc2ccccc2o1 [14b, N-((S)-1-(((S)-4-(benzylamino)-3,4-dioxo-1-((S)-2-oxopiperidin-3-yl)butan-2-yl)amino)-3-cyclohexyl-1-oxopropan-2-yl)benzofuran-2-carboxamide]",Effect against SARS-CoV-2 XBB 1.16 variant in vivo (in words),,potent effect
